Laboratory results published in ChEMBL document CHEMBL4834394, “Neobulgarones Revisited: Anti and Syn Bianthrones from an Australian Mud Dauber Wasp Nest-Associated Fungus, Penicillium sp. CMB-MD22” (J Nat Prod, 2021).
pIC50: −log10 of the molar value. The source made the active and inactive calls. The rule behind the calls is not given here.

Key:
Staphylococcus aureus = experiment: Antibacterial activity against Staphylococcus aureus ATCC 25923 assessed as inhibition of bacterial growth incubated for 24 hrs; format: functional, organism-based; conditions: ATCC 25923, 24 h
Escherichia coli = experiment: Antibacterial activity against Escherichia coli ATCC 11775 assessed as inhibition of bacterial growth incubated for 24 hrs; format: functional, organism-based; conditions: ATCC 11775, 24 h
Candida albicans = experiment: Antifungal activity against Candida albicans ATCC 10231 assessed as inhibition of fungal growth incubated for 24 hrs; format: functional, organism-based; conditions: ATCC 10231, 24 h
SW-620 = experiment: Cytotoxicity against human SW620 cells after 48 hrs by MTT assay; format: functional, cell-based
[1] = molecular target: ATP-dependent translocase ABCB1 (Homo sapiens, UniProt P08183); experiment: Reversal of P-gp mediated doxorubicin resistance in human SW620 Ad300 cells overexpressing P-gp at 30 uM after 48 hrs by MTT assay; format: cell-based; conditions: sw-620, 48 h
Sequence of ATP-dependent translocase ABCB1 (P08183 whole entry): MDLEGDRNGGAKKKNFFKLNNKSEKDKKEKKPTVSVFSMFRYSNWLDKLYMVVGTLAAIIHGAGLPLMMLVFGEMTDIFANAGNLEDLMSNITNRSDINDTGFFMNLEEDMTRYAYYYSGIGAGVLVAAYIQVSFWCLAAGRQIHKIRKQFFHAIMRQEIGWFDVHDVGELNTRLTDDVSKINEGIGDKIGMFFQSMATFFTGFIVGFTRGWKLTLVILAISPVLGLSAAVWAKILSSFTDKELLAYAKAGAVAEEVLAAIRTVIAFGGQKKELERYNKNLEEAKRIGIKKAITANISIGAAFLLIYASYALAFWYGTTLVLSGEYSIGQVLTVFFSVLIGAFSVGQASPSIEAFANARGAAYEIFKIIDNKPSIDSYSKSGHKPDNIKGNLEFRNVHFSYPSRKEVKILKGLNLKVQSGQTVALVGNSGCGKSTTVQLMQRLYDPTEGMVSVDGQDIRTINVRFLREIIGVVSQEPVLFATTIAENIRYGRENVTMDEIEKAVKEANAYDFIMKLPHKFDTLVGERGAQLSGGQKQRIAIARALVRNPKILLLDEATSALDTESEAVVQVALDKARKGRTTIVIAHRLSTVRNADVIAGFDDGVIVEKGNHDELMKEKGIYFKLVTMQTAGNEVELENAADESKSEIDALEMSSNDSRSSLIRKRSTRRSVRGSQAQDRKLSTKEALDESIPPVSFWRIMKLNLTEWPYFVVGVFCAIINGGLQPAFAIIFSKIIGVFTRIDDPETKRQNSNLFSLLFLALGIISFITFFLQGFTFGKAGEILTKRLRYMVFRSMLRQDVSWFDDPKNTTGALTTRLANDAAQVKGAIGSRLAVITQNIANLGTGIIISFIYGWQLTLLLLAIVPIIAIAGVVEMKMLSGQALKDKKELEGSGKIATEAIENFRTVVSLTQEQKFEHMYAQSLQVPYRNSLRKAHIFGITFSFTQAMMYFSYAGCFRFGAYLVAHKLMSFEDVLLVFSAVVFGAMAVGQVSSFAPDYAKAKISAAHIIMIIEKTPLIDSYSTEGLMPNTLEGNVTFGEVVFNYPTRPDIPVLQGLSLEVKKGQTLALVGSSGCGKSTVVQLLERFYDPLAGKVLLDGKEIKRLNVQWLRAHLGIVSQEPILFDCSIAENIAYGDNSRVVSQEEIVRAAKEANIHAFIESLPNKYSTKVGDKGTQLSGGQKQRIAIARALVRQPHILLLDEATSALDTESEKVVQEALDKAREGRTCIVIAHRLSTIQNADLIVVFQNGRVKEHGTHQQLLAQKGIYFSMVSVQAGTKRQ

Row | SMILES | Activity [1] | pIC50 (Staphylococcus aureus) | pIC50 (Escherichia coli) | pIC50 (Candida albicans) | Activity (SW-620)
1 | COc1cc(C)cc2c1C(=O)c1c(cc(O)c(OC)c1O)[C@@H]2[C@@H]1c2cc(C)cc(OC)c2C(=O)c2c(O)c(OC)c(O)c(Cl)c21 | Not Active | < 4.52 | < 4.52 | < 4.52 | inactive
2 | COc1cc(CO)cc2c1C(=O)c1c(O)cc(O)cc1C2=O [CARVIOLIN] | Not Active | < 4.52 | < 4.52 | < 4.52 | inactive
3 | COc1cc(C)cc2c1C(=O)c1c(O)cc(O)c(Cl)c1C2O (stereo not given) | Not Active | < 4.52 | < 4.52 | < 4.52 | inactive
4 | COc1cc(C)cc2c1C(=O)c1c(O)c(OC)c(O)c(Cl)c1[C@@H]2[C@@H]1c2cc(C)cc(OC)c2C(=O)c2c(O)c(OC)c(O)c(Cl)c21 | Not Active | < 4.52 | < 4.52 | < 4.52 | inactive
5 | COc1cc(C)cc2c1C(=O)c1c(O)cc(O)cc1C2=O [1-O-METHYLEMODIN] | Not Active | < 4.52 | < 4.52 | < 4.52 | inactive
6 | COc1cc(C)cc2c1C(=O)c1c(O)c(OC)c(O)c(Cl)c1[C@@H]2[C@H]1c2cc(C)cc(OC)c2C(=O)c2c(O)c(OC)c(O)c(Cl)c21 | Not Active | < 4.52 | < 4.52 | < 4.52 | inactive
7 | COc1cc(CO)cc2c1C(=O)c1c(cc(O)c(OC)c1O)C2=O | Not Active | < 4.52 | < 4.52 | < 4.52 | inactive
8 | COc1cc(C)cc2c1C(=O)c1c(cc(O)c(OC)c1O)C2=O | Not Active | < 4.52 | < 4.52 | < 4.52 | inactive

Now from value to compound, other results behind:

Row | Activity [1] | SMILES | pIC50 (Staphylococcus aureus) | pIC50 (Escherichia coli) | pIC50 (Candida albicans) | Activity (SW-620)
9 | Not Active | COc1cc(C)cc2c1C(=O)c1c(O)cc(O)c(Cl)c1[C@@H]2[C@@H]1c2cc(C)cc(OC)c2C(=O)c2c(O)cc(O)c(Cl)c21 | < 4.52 | < 4.52 | < 4.52 | inactive
10 | Not Active | COc1cc(C)cc2c1C(=O)c1c(cc(O)c(OC)c1O)[C@@H]2[C@@H]1c2cc(C)cc(OC)c2C(=O)c2c(O)cc(O)c(Cl)c21 | < 4.52 | < 4.52 | < 4.52 | inactive
11 | Not Active | COc1cc(C)cc2c1C(=O)c1c(O)cc(O)cc1[C@@H]2[C@@H]1c2cc(C)cc(OC)c2C(=O)c2c(O)cc(O)c(Cl)c21 | < 4.52 | < 4.52 | < 4.52 | inactive
12 | Not Active | COc1cc(C)cc2c1C(=O)c1c(O)cc(O)c(Cl)c1[C@@H]2[C@@H]1c2cc(C)cc(OC)c2C(=O)c2c(O)c(OC)c(O)c(Cl)c21 | < 4.52 | < 4.52 | < 4.52 | inactive
13 | Not Active | COc1cc(C)cc2c1C(=O)c1c(cc(O)c(OC)c1O)[C@H]2[C@@H]1c2cc(C)cc(OC)c2C(=O)c2c(O)cc(O)c(Cl)c21 | < 4.52 | < 4.52 | < 4.52 | inactive
14 | Not Active | COc1cc(C)cc2c1C(=O)c1c(O)c(OC)c(O)c(Cl)c1[C@@H]2[C@H]1c2cc(C)cc(OC)c2C(=O)c2c(O)cc(O)c(Cl)c21 | < 4.52 | < 4.52 | < 4.52 | inactive
15 | Not Active | COc1cc(C)cc2c1C(=O)c1c(O)cc(O)c(Cl)c1[C@@H]2[C@H]1c2cc(C)cc(OC)c2C(=O)c2c(O)cc(O)c(Cl)c21 | < 4.52 | < 4.52 | < 4.52 | inactive
16 | Not Active | COc1cc(C)cc2c1C(=O)c1c(O)cc(O)cc1[C@@H]2[C@@H]1c2cc(C)cc(OC)c2C(=O)c2c(O)c(OC)c(O)c(Cl)c21 | < 4.52 | < 4.52 | < 4.52 | inactive
